From patent US10370333B2 (Sanford Burnham Prebys Medical Discovery Institute, priority 2012, dated 2019)

What follows are compounds tested against TNAP (Homo sapiens (Human), UniProt P05186) (assay: TNAP (PPi) inhibition assay, pyrophosphate as substrate).
Type: biochemical
Method in brief: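 Enzyme source was conditioned serum-free medium from COS-1 cells transiently expressing tagged human TNAP, dialyzed against TBS with MgCl2/ZnCl2. Activity on natural substrate PPi at pH 7.4 read as liberated phosphate (Biomol Green).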

Q: `COc1ccc(OC)c(S(=O)(=O)Nc2nnc(C)o2)c1` [Example V-22, 2,5-Dimethoxy-N-(5-methyl-[1,3,4]oxadiazol-2-yl)-benzenesulfonamide] was tested. Which IC50 did it give?
A: The IC50 was over 1 µM.

Q: Which IC50 does the source give for `COc1ccc(OC)c(S(=O)(=O)Nc2cnccn2)c1` [Example V-23, 2,5-Dimethoxy-N-pyrazin-2-yl-benzenesulfonamide] here?
A: The IC50 was over 1 µM.

Q: How did the IC50 turn out when `COc1ccc(Br)cc1S(=O)(=O)Nc1cccnn1` [Example V-24, 5-Bromo-2-methoxy-N-pyridazin-3-yl-benzenesulfonamide] was run?
A: The IC50 was 0.1 to 1 µM.

Q: How did the IC50 turn out when `COc1ccc(OC)c(S(=O)(=O)Nc2cccnn2)c1` [Example V-25, 2,5-Dimethoxy-N-pyridazin-3-yl-benzenesulfonamide] was run?
A: Its IC50 is over 1 µM.

Q: With `COc1ccc(Br)cc1S(=O)(=O)Nc1ccnnc1` [Example V-26, 5-Bromo-2-methoxy-N-pyridazin-4-yl-benzenesulfonamide] as the compound, how does the IC50 read?
A: The IC50 was over 1 µM.

Q: `COc1ccc(OC)c(S(=O)(=O)Nc2ccnnc2)c1` [Example V-27, 2,5-Dimethoxy-N-pyridazin-4-yl-benzenesulfonamide] was tested. Which IC50 did it give?
A: Its IC50 is over 1 µM.

Q: For `COc1ccc(Br)cc1S(=O)(=O)Nc1ncccn1` [Example V-28, 5-Bromo-2-methoxy-N-pyrimidin-2-yl-benzenesulfonamide], which IC50 is on record?
A: Its IC50 is over 1 µM.

Q: With `COc1ccc(OC)c(S(=O)(=O)Nc2ncccn2)c1` [Example V-29, 2,5-Dimethoxy-N-pyrimidin-2-yl-benzenesulfonamide] as the compound, how does the IC50 read?
A: The IC50 was over 1 µM.

Q: Which IC50 does the source give for `COc1ncc(Br)cc1S(=O)(=O)Nc1cnc2ccccc2c1` [Example VI-1, 5-Bromo-2-methoxy-pyridine-3-sulfonic acid quinolin-3-ylamide] here?
A: Its IC50 is under 0.1 µM.

Q: `CCN(c1cnc2ccccc2c1)S(=O)(=O)c1cc(Br)ccc1OC` [Example VII-2, 5-Bromo-2-methoxy-N-ethyl-N-(quinolin-3-yl)benzenesulfonamide] was tested. Which IC50 did it give?
A: Its IC50 is over 1 µM.

Q: Which IC50 does the source give for `CCCN(c1cnc2ccccc2c1)S(=O)(=O)c1cc(Br)ccc1OC` [Example VII-3, 5-Bromo-2-methoxy-N-propyl-N-(quinolin-3-yl)benzenesulfonamide] here?
A: The IC50 was over 1 µM.

Q: With `COc1ccc(Br)cc1S(=O)(=O)N(c1cnc2ccccc2c1)C(C)C` [Example VII-4, 5-Bromo-N-isopropyl-2-methoxy-N-(quinolin-3-yl)benzenesulfonamide] as the compound, how does the IC50 read?
A: The IC50 was over 1 µM.

Q: Which IC50 does the source give for `CCCCN(c1cnc2ccccc2c1)S(=O)(=O)c1cc(Br)ccc1OC` [Example VII-5, 5-Bromo-N-butyl-2-methoxy-N-(quinolin-3-yl)benzenesulfonamide] here?
A: Its IC50 is over 1 µM.

Q: With `COc1ccc(Br)cc1S(=O)(=O)N(Cc1ccccc1)c1cnc2ccccc2c1` [Example VII-6, 5-Bromo-N-benzyl-2-methoxy-N-(quinolin-3-yl)benzenesulfonamide] as the compound, how does the IC50 read?
A: Its IC50 is over 1 µM.

Q: For `COCCN(c1cnc2ccccc2c1)S(=O)(=O)c1cc(Br)ccc1OC` [Example VII-7, 5-Bromo-2-methoxy-N-(2-methoxyethyl)-N-(quinolin-3-yl)benzenesulfonamide], which IC50 is on record?
A: The IC50 was over 1 µM.

Q: Which IC50 does the source give for `COc1ccc(Br)cc1S(=O)(=O)N(CCN(C)C)c1cnc2ccccc2c1` [Example VII-9, 5-Bromo-N-(2-(dimethylamino)ethyl)-2-methoxy-N-(quinolin-3-yl)benzenesulfonamide] here?
A: The IC50 was over 1 µM.

Q: For `C=CCN(c1cnc2ccccc2c1)S(=O)(=O)c1cc(Br)ccc1OC` [Example VII-10, N-allyl-5-bromo-2-methoxy-N-(quinolin-3-yl)benzenesulfonamide], which IC50 is on record?
A: The IC50 was over 1 µM.

Q: With `C#CCN(c1cnc2ccccc2c1)S(=O)(=O)c1cc(Br)ccc1OC` [Example VII-11, 5-Bromo-2-methoxy-N-(prop-2-yn-1-yl)-N-(quinolin-3-yl)benzenesulfonamide] as the compound, how does the IC50 read?
A: The IC50 was over 1 µM.

Q: How did the IC50 turn out when `COc1ccc(OC)c(S(=O)(=O)N(C)c2cnc3ccccc3c2)c1` [Example VII-12, 2,5-Dimethoxy-N-methyl-N-(quinolin-3-yl)benzenesulfonamide] was run?
A: The IC50 was over 1 µM.

Q: For `CCN(c1cnc2ccccc2c1)S(=O)(=O)c1cc(OC)ccc1OC` [Example VII-13, 2,5-Dimethoxy-N-ethyl-N-(quinolin-3-yl)benzenesulfonamide], which IC50 is on record?
A: Its IC50 is over 1 µM.

Q: `COc1ccc(OC)c(S(=O)(=O)N(c2cnc3ccccc3c2)C(C)C)c1` [Example VII-14, 2,5-Dimethoxy-N-isopropyl-N-(quinolin-3-yl)benzenesulfonamide] was tested. Which IC50 did it give?
A: Its IC50 is over 1 µM.

Q: Which IC50 does the source give for `CCCCN(c1cnc2ccccc2c1)S(=O)(=O)c1cc(OC)ccc1OC` [Example VII-15, 2,5-Dimethoxy-N-butyl-N-(quinolin-3-yl)benzenesulfonamide] here?
A: Its IC50 is over 1 µM.

Q: How did the IC50 turn out when `COc1ccc(OC)c(S(=O)(=O)N(Cc2ccccc2)c2cnc3ccccc3c2)c1` [Example VII-16, 2,5-Dimethoxy-N-benzyl-N-(quinolin-3-yl)benzenesulfonamide] was run?
A: Its IC50 is over 1 µM.

Q: With `COCCN(c1cnc2ccccc2c1)S(=O)(=O)c1cc(OC)ccc1OC` [Example VII-17, 2,5-Dimethoxy-N-(2-methoxyethyl)-N-(quinolin-3-yl)benzenesulfonamide] as the compound, how does the IC50 read?
A: Its IC50 is over 1 µM.

Q: How did the IC50 turn out when `COCCCN(c1cnc2ccccc2c1)S(=O)(=O)c1cc(OC)ccc1OC` [Example VII-18, 2,5-Dimethoxy-N-(3-methoxypropyl)-N-(quinolin-3-yl)benzenesulfonamide] was run?
A: The IC50 was over 1 µM.

Q: Which IC50 does the source give for `COc1ccc(OC)c(S(=O)(=O)N(CCN(C)C)c2cnc3ccccc3c2)c1` [Example VII-19, N-(2-(Dimethylamino)ethyl)-2,5-dimethoxy-N-(quinolin-3-yl)benzenesulfonamide] here?
A: The IC50 was over 1 µM.

Q: Which IC50 does the source give for `C=CCN(c1cnc2ccccc2c1)S(=O)(=O)c1cc(OC)ccc1OC` [Example VII-20, N-Allyl-2,5-dimethoxy-N-(quinolin-3-yl)benzenesulfonamide] here?
A: Its IC50 is over 1 µM.

Q: For `C#CCN(c1cnc2ccccc2c1)S(=O)(=O)c1cc(OC)ccc1OC` [Example VII-21, 2,5-Dimethoxy-N-(prop-2-yn-1-yl)-N-(quinolin-3-yl)benzenesulfonamide], which IC50 is on record?
A: Its IC50 is over 1 µM.

Q: Which IC50 does the source give for `COc1ccc(Br)cc1S(=O)(=O)Nc1ccc(N2CCOCC2)nc1` [Example VIII-1, 5-Bromo-2-methoxy-N-(6-morpholinopyridin-3-yl)benzenesulfonamide] here?
A: The IC50 was over 1 µM.

Q: `COc1ccc(OC)c(S(=O)(=O)Nc2ccc(N3CCOCC3)nc2)c1` [Example VIII-2, 2,5-Dimethoxy-N-(6-morpholinopyridin-3-yl)benzenesulfonamide] was tested. Which IC50 did it give?
A: The IC50 was over 1 µM.

Q: With `COc1ccc(Br)cc1S(=O)(=O)Nc1ccc(N)nc1` [Example VIII-3, 5-Bromo-2-methoxy-N-(6-Amino-pyridin-3-yl)-benzenesulfonamide] as the compound, how does the IC50 read?
A: Its IC50 is over 1 µM.

Q: `COc1ccc(OC)c(S(=O)(=O)Nc2ccc(N)nc2)c1` [Example VIII-4, 2,5-Dimethoxy-N-(6-Amino-pyridin-3-yl)-benzenesulfonamide] was tested. Which IC50 did it give?
A: Its IC50 is over 1 µM.

Q: Which IC50 does the source give for `CNc1ccc(NS(=O)(=O)c2cc(Br)ccc2OC)cn1` [Example VIII-5, 5-Bromo-2-methoxy-N-(6-methylamino-pyridin-3-yl)-benzenesulfonamide] here?
A: Its IC50 is 0.1 to 1 µM.

Q: Which IC50 does the source give for `CNc1ccc(NS(=O)(=O)c2cc(OC)ccc2OC)cn1` [Example VIII-6, 2,5-Dimethoxy-N-(6-methylamino-pyridin-3-yl)-benzenesulfonamide] here?
A: Its IC50 is over 1 µM.

Q: For `COc1ccc(Br)cc1S(=O)(=O)Nc1ccc(N(C)C)nc1` [Example VIII-7, 5-Bromo-N-(6-(dimethylamino)pyridin-3-yl)-2-methoxybenzenesulfonamide], which IC50 is on record?
A: Its IC50 is over 1 µM.

Q: For `COc1ccc(OC)c(S(=O)(=O)Nc2ccc(N(C)C)nc2)c1` [Example VIII-8, N-(6-(Dimethylamino)pyridin-3-yl)-2,5-dimethoxybenzenesulfonamide], which IC50 is on record?
A: The IC50 was over 1 µM.

Q: With `CCN(CC)c1ccc(NS(=O)(=O)c2cc(Br)ccc2OC)cn1` [Example VIII-9, 5-Bromo-N-(6-(diethylamino)pyridin-3-yl)-2-methoxybenzenesulfonamide] as the compound, how does the IC50 read?
A: Its IC50 is 0.1 to 1 µM.

Q: For `CCN(CC)c1ccc(NS(=O)(=O)c2cc(OC)ccc2OC)cn1` [Example VIII-10, N-(6-(Diethylamino)pyridin-3-yl)-2,5-dimethoxybenzenesulfonamide], which IC50 is on record?
A: Its IC50 is over 1 µM.

Q: `COCCNc1ccc(NS(=O)(=O)c2cc(Br)ccc2OC)cn1` [Example VIII-11, 5-Bromo-2-methoxy-N-(6-((2-methoxyethyl)amino)pyridin-3-yl)benzenesulfonamide] was tested. Which IC50 did it give?
A: Its IC50 is over 1 µM.

Q: With `COCCNc1ccc(NS(=O)(=O)c2cc(OC)ccc2OC)cn1` [Example VIII-12, 2,5-Dimethoxy-N-(6-((2-methoxyethyl)amino)pyridin-3-yl)benzenesulfonamide] as the compound, how does the IC50 read?
A: The IC50 was over 1 µM.

Q: With `COc1ccc(Br)cc1S(=O)(=O)Nc1ccc(NCCN(C)C)nc1` [Example VIII-13, 5-Bromo-N-(6-((2-(dimethylamino)ethyl)amino)pyridin-3-yl)-2-methoxybenzenesulfonamide] as the compound, how does the IC50 read?
A: Its IC50 is over 1 µM.

Q: `COc1ccc(OC)c(S(=O)(=O)Nc2ccc(NCCN(C)C)nc2)c1` [Example VIII-14, N-(6-((2-(Dimethylamino)ethyl)amino)pyridin-3-yl)-2,5-dimethoxybenzenesulfonamide] was tested. Which IC50 did it give?
A: The IC50 was over 1 µM.

Q: `COc1ccc(Br)cc1S(=O)(=O)Nc1ccc(Nc2ccccc2)nc1` [Example VIII-15, 5-Bromo-2-methoxy-N-(6-(phenylamino)pyridin-3-yl)benzenesulfonamide] was tested. Which IC50 did it give?
A: The IC50 was over 1 µM.

Q: For `COc1ccc(Br)cc1S(=O)(=O)Nc1ccc(N2CCCCC2)nc1` [Example VIII-17, 5-Bromo-2-methoxy-N-(3,4,5,6-tetrahydro-2H-[1,2′]bipyridinyl-5′-yl)-benzenesulfonamide], which IC50 is on record?
A: Its IC50 is over 1 µM.

Q: How did the IC50 turn out when `COc1ccc(OC)c(S(=O)(=O)Nc2ccc(N3CCCCC3)nc2)c1` [Example VIII-18, 2,5-Dimethoxy-N-(3,4,5,6-tetrahydro-2H-[1,2′]bipyridinyl-5′-yl)-benzenesulfonamide] was run?
A: Its IC50 is over 1 µM.

Q: How did the IC50 turn out when `COc1ccc(Br)cc1S(=O)(=O)Nc1ccc(N2CCN(C)CC2)nc1` [Example VIII-19, 5-Bromo-2-methoxy-N-[6-(4-methyl-piperazin-1-yl)-pyridin-3-yl]-benzenesulfonamide] was run?
A: The IC50 was over 1 µM.

Q: `COc1ccc(OC)c(S(=O)(=O)Nc2ccc(N3CCN(C)CC3)nc2)c1` [Example VIII-20, 2,5-Dimethoxy-N-[6-(4-methyl-piperazin-1-yl)-pyridin-3-yl]-benzenesulfonamide] was tested. Which IC50 did it give?
A: Its IC50 is over 1 µM.
